Key:
[1] = Selectivity ratio of Ki/Km for calf thymus thymidylate synthetase to Ki/Km for thymidylate synthetase in mouse Ehrlich ascites tumor cells
[2] = Competitive inhibition of thymidylate synthetase in mouse Ehrlich ascites tumor cells using 5-[3H]-dUMP as substrate after 7 mins by scintillation counting analysis
Mus musculus [3] = species: Mus musculus; experiment: Ratio of Ki to Km for thymidylate synthetase in mouse Ehrlich ascites tumor cells
[4] = Inhibition of Escherichia coli thymidylate synthetase using 5-[3H]-dUMP as substrate
Bos taurus [5] = species: Bos taurus; experiment: Ratio of Ki to Km for calf thymus thymidylate synthetase
[6] = Competitive inhibition of Escherichia coli thymidylate synthetase using 5-[3H]-dUMP as substrate after 7 mins by scintillation counting analysis
[7] = Competitive inhibition of calf thymus thymidylate synthetase using 5-[3H]-dUMP as substrate after 10 mins by scintillation counting analysis; set-up: species or system Bos taurus
[8] = Retardation factor of the compound; format: physicochemical
Mus musculus [9] = species: Mus musculus; experiment: Irreversible inactivation of thymidylate synthetase in mouse Ehrlich ascites tumor cells assessed as enzyme activity using dUMP as substrate at 0.33 mM preincubated for 3 hrs in absence of cofactor tetrahydrofolate
Mus musculus [10] = species: Mus musculus; experiment: Irreversible inactivation of thymidylate synthetase in mouse Ehrlich ascites tumor cells assessed as enzyme activity using dUMP as substrate at 0.33 mM preincubated for 3 hrs in presence of cofactor tetrahydrofolate
Bos taurus [11] = species: Bos taurus; experiment: Irreversible inactivation of calf thymus thymidylate synthetase assessed as enzyme activity using dUMP as substrate at 0.33 mM preincubated for 3 hrs in absence of cofactor tetrahydrofolate
Bos taurus [12] = species: Bos taurus; experiment: Irreversible inactivation of calf thymus thymidylate synthetase assessed as enzyme activity using dUMP as substrate at 0.33 mM preincubated for 3 hrs in presence of cofactor tetrahydrofolate
[13] = Non-competitive inhibition of calf thymus thymidylate synthetase using 5-[3H]-dUMP as substrate after 10 mins by scintillation counting analysis; set-up: species or system Bos taurus

Compound | Selectivity ratio [1] | Ki [2] [µM] | Ki/Km (Mus musculus [3]) | Ki [4] [µM] | Ki/Km (Bos taurus [5]) | Ki [6] [µM] | Ki [7] [µM] | Rf [8] | Activity (Mus musculus [9]) [%] | Activity (Mus musculus [10]) [%] | Activity (Bos taurus [11]) [%] | Activity (Bos taurus [12]) [%] | Ki [13] [µM]
O=c1[nH]c(=O)n([C@H]2C[C@H](O)[C@@H](COP(=O)(O)O)O2)cc1CO | 3 | 0.6 | 0.15 | 10.5 | 0.44 | 4 | 4 |  |  |  |  |  | 
C=CCc1cn([C@H]2C[C@H](O)[C@@H](COP(=O)(O)O)O2)c(=O)[nH]c1=O | 1.4 | 40 | 10 |  | 14 | 135 | 130 | 0.55 |  |  |  |  | 
CC(=O)c1cn([C@H]2C[C@H](O)[C@@H](COP(=O)(O)O)O2)c(=O)[nH]c1=O | 1.5 | 22 | 5.5 |  | 8.1 | 64 | 73 |  |  |  |  |  | 
O=c1[nH]c(=O)n([C@H]2C[C@H](O)[C@@H](COP(=O)(O)O)O2)cc1CC1CO1 (stereo not given in full) | 1 | 14 | 3.5 |  | 3.6 | 25 | 33 | 0.45 | 94 | 120 | 104 | 85 | 
O=c1[nH]c(=O)n([C@H]2C[C@H](O)[C@@H](COP(=O)(O)O)O2)cc1COCc1ccccc1 | 2 | 9 | 2.2 |  | 4.6 | 25 | 42 |  |  |  |  |  | 
COCc1cn([C@H]2C[C@H](O)[C@@H](COP(=O)(O)O)O2)c(=O)[nH]c1=O | 0.7 | 19 | 4.7 |  | 3.5 | 42 | 32 |  |  |  |  |  | 
O=Cc1cn([C@H]2C[C@H](O)[C@@H](COP(=O)(O)O)O2)c(=O)[nH]c1=O | 0.5 | 0.08 | 0.02 | 0.013 | 0.01 | 0.1 |  |  |  |  |  |  | 0.09
[N-]=[N+]=NCc1cn([C@H]2C[C@H](O)[C@@H](COP(=O)(O)O)O2)c(=O)[nH]c1=O | 1.9 | 5 | 1.2 |  | 2.3 | 18 | 21 |  | 60 | 87 | 77 | 83 | 
